Legend:
[1] = Inhibition of microtubule assembly after 15 mins
[2] = Displacement of [3H]colchicine from tubulin at inhibitor and colchicine ratio 1:1 after 10 mins relative to control; design: concentration or dose not given beside the values; conditions: values are per cent of control
[3] = Displacement of [3H]colchicine from tubulin at inhibitor and colchicine ratio 10:1 after 10 mins relative to control; design: concentration or dose not given beside the values; conditions: values are per cent of control
[4] = test system: L1210; test: Cytotoxicity against mouse L1210 cells after 24 hrs; format: functional, cell-based; conditions: L1210, 24 h
[5] = test system: L1210; test: Antimitotic activity in mouse L1210 cells assessed as increase in mitotic index at 2 to 7 times IC50 after 6 hrs relative to control; format: functional
[6] = Displacement of [3H]colchicine from tubulin at inhibitor and colchicine ratio 100:1 after 10 mins relative to control; conditions: values are per cent of control
[7] = test system: P388; test: Cytotoxicity against mouse P388 cells; format: functional

Structure (SMILES) | IC50 [1] | residual binding, % of control [2] | residual binding, % of control [3] | IC50 [4] | Activity [5] | residual binding, % of control [6] | ED50 [7]
COc1ccc(/C=C\c2cc(OC)c(OC)c(OC)c2)c(O)c1O [COMBRETASTATIN A-1] | 4 µM | 3% | 0% | 0.6 µM | 25% |  | 
COc1cc(CCc2ccc(O)cc2)cc(OC)c1OC | > 100 µM | 89% | 77% | 50 µM | 25% | 43% | 0.25 Ug/ml
COc1ccc(CCc2cc(OC)c(OC)c(OC)c2)cc1OC | > 100 µM | 88% | 63% | 20 µM | 25% | 37% | 
COc1cc(CCc2ccc(O)c(O)c2)cc(OC)c1OC | > 100 µM | 92% | 81% | 3 µM | 25% | 48% | 0.4 Ug/ml
COc1cc([C@@H]2c3cc4c(cc3[C@H](O)[C@H]3COC(=O)[C@H]23)OCO4)cc(OC)c1OC [PODOFILOX] | 4 µM | 11% | 0% |  |  |  | 
COc1cc(CCc2ccc(O)c(O)c2)cc(OC)c1 | > 100 µM | 75% | 31% | 1 µM | 25% | 10% | 1.7 Ug/ml
COc1cc(CCc2ccc(OC)c(O)c2)cc(OC)c1 | 30 µM | 38% | 8% | 1 µM | 25% | 3% | 1.7 Ug/ml
COc1cc(CCc2ccc(OC)c(OC)c2)cc(OC)c1 | > 100 µM | 90% | 80% | 30 µM | 56% | 34% | 
COc1ccc(CCc2cc(OC)c(OC)c(OC)c2)c(O)c1O | 4 µM | 13% | 0% | 2 µM | 25% |  | 

Reference: ChEMBL document CHEMBL1150757, “Isolation, structure, synthesis, and antimitotic properties of combretastatins B-3 and B-4 from Combretum caffrum” (J Nat Prod, 1988)
